Source: US11530218B2, “Spiro compounds as inhibitors of KRAS” (Incyte Corporation, priority 2020, dated 2022)

What was measured:
[1] = test system: KRAS G12D (A427, HPAF-II cells); test: KRAS_G12D cellular pERK HTRF assay; type: cell-based; settings: cells incubated with compound 2 hours; read-out: G12D_pERK (KRAS_G12D pERK assay IC50)
Method: (§1) MIA PaCa-2 (KRAS G12C; ATCC® CRL-1420), A427 (KRAS G12D; ATCC® HTB53), HPAF-II (KRAS G12D; ATCC® CRL-1997) and NCI-H838 (KRAS WT; ATCC® CRL-5844) cells are purchased from ATCC and maintained in RPMI 1640 media supplemented with 10% FBS (Gibco/Life Technologies). The cells are plated at 5000 cells per well (8 uL) into Greiner 384-well low volume, flat-bottom, tissue culture treated white plates and incubated overnight at 37° C., 5% CO2. The next morning, test compound stock solutions are diluted in media at 3x the final concentration, and 4 uL are added to the cells. The plate is mixed by gentle rotation for 30 seconds (250 rpm) at room temperature. The cells are incubated with the KRAS G12C and G12D compounds for 4 hours or 2 hours respectively at 37° C., 5% CO2.
(§2) 4 uL of 4× lysis buffer with blocking reagent (1:25) (Cisbio) are added to each well and plates are rotated gently (300 rpm) for 30 minutes at room temperature. 4 uL per well of Cisbio anti Phospho-ERK 1/2 d2 is mixed with anti Phospho-ERK 1/2 Cryptate (1:1) are added to each well, mixed by rotation and incubated overnight in the dark at room temperature. Plates are read on the Pherastar plate reader at 665 nm and 620 nm wavelengths. IC50 determination is performed by fitting the curve of inhibitor percent inhibition versus the log of the inhibitor concentration using the GraphPad Prism 7 software.

KRAS G12D = KRAS G12D (Homo sapiens, UniProt P01116, G12D); test: KRAS G12D GDP-GTP exchange assay (bodipy-GDP/GppNHp, SOS1); type: biochemical; settings: bodipy loaded KRAS G12D 2.5 nM, 4 hours incubation after GppNHp-SOS1; read-out: G12D_exchange (KRAS_G12D exchange assay IC50)
Method: (§3) The inhibitor potency of the exemplified compounds was determined in a fluorescence based guanine nucleotide exchange assay, which measures the exchange of bodipy-GDP (fluorescently labeled GDP) for GppNHp (Non-hydrolyzable GTP analog) to generate the active state of KRAS in the presence of SOS1 (guanine nucleotide exchange factor). Inhibitors were serially diluted in DMSO and a volume of 0.1 μL was transferred to the wells of a black low volume 384-well plate. 5 μL/well volume of bodipy-loaded KRAS G12C diluted to 5 nM in assay buffer (25 mM Hepes pH 7.5, 50 mM NaCl, 10 mM MgCl2 and 0.01% Brij-35) was added to the plate and pre-incubated with inhibitor for 2 hours at ambient temperature. Appropriate controls (enzyme with no inhibitor or with a G12C inhibitor (AMG-510)) were included on the plate. The exchange was initiated by the addition of a 5 μL/well volume containing 1 mM GppNHp and 300 nM SOS1 in assay buffer. The 10 μL/well reaction concentration of the bodipy-loaded KRAS G12C, GppNHp, and SOS1 were 2.5 nM, 500 uM, and 150 nM, respectively. The reaction plates were incubated at ambient temperature for 2 hours, a time estimated for complete GDP-GTP exchange in the absence of inhibitor. For the KRAS G12D and G12V mutants, similar guanine nucleotide exchange assays were used with 2.5 nM as final concentration for the bodipy loaded KRAS proteins and with 4 hours and 3 hours incubation after adding GppNHp-SOS1 mixture for G12D and G12V respectively. A cyclic peptide described to selectively bind G12D mutant (Sakamoto et al., BBRC 484.3 (2017), 605-611) or internal compounds with confirmed binding were used as positive controls in the assay plates. Fluorescence intensities were measured on a PheraStar plate reader instrument (BMG Labtech) with excitation at 485 nm and emission at 520 nm.
(§4) Either GraphPad prism or XLfit was used to analyze the data. The IC50 values were derived by fitting the data to a four parameter logistic equation producing a sigmoidal dose-response curve with a variable Hill coefficient. Prism equation: Y=Bottom+(Top−Bottom)/(1+10^((Log IC50−X)*Hill slope)); XLfit equation: Y=(A+((B−A)/(1+((X/C)^D)))) where X is the logarithm of inhibitor concentration and Y is the response.

KRAS G12C = KRAS G12C (Homo sapiens, UniProt P01116, G12C); test: KRAS G12C GDP-GTP exchange assay (bodipy-GDP/GppNHp, SOS1); type: biochemical; settings: bodipy-loaded KRAS G12C 2.5 nM, 2 hours pre-incubation with inhibitor, 2 hours exchange; read-out: G12C_exchange (KRAS_G12C exchange assay IC50)
Method: as §3, §4

[2] = test system: KRAS G12C (MIA PaCa-2 cells); test: KRAS_G12C cellular pERK HTRF assay; type: cell-based, human; set-up: G12C_pERK (KRAS_G12C pERK assay IC50): scale not given here; settings: cells incubated with compound 4 hours
Method: as §1, §2

KRAS G12C, sequence (P01116 1-188 isoform P01116-2 G12C): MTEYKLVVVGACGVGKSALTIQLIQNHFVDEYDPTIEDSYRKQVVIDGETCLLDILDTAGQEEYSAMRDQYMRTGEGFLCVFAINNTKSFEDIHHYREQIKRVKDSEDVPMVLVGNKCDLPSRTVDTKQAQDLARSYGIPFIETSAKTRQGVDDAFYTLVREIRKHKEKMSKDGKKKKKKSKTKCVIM
KRAS G12D, sequence (P01116 1-188 isoform P01116-2 G12D): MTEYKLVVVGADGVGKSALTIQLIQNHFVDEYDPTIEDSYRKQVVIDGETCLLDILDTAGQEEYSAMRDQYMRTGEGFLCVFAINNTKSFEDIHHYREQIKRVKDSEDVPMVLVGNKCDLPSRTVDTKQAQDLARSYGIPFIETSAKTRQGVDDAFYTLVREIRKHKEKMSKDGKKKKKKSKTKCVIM

| SMILES | IC50 (KRAS G12C) [nM] | G12C_pERK (KRAS_G12C pERK assay IC50) [2] | other results |
| --- | --- | --- | --- |
| CC(C)CCN1C(=O)C2(CCCNC2)c2c1c(OC[C@@H]1CCCN1C)nc1c(F)c(-c3cc(O)cc4ccccc34)c(CCCC#N)cc21 (single isomer, unassigned) [Example 35a] | – | – | IC50 [1]: 5000 to 50000 nM; IC50 (KRAS G12D): ≤ 100 nM |
| C=CC(=O)N1CCC2(CC1)Nc1c(cnc3c(F)c(-c4c(F)cccc4OC)c(Cl)cc13)NC2=O [Example 5, 1-Acryloyl-9′-chloro-7′-fluoro-8′-(2-fluoro-6-methoxyphenyl)-1′,4′-dihydro-3′H-spiro[piperidine-4,2′-pyrazino[2,3-c]quinolin]-3′-one] | 1000 to 5000 | – | – |
| C=CC(=O)N1CCC2(CC1)Nc1c(c(OC[C@@H]3CCCN3C)nc3c(F)c(-c4c(O)cccc4F)c(Cl)cc13)NC2=O [Example 10, 1-Acryloyl-9′-chloro-7′-fluoro-8′-(2-fluoro-6-hydroxyphenyl)-5′-(((S)-1-methylpyrrolidin-2-yl)methoxy)-1′,4′-dihydro-3′H-spiro[piperidine-4,2′-pyrazino[2,3-c]quinolin]-3′-one] | ≤ 100 | – | IC50 ([2]; Homo sapiens, MIA PaCa-2, read-out: G12C_pERK (KRAS_G12C pERK assay IC50)): 1000 to 5000 nM |
| C=CC(=O)N1CCC2(CC1)Nc1c(c(OC[C@@H]3CCCN3C)nc3c(F)c(-c4cc(O)cc5ccccc45)c(Cl)cc13)NC2=O [Example 11, 1-Acryloyl-9′-chloro-7′-fluoro-8′-(3-hydroxynaphthalen-1-yl)-5′-(((S)-1-methylpyrrolidin-2-yl)methoxy)-1′,4′-dihydro-3′H-spiro[piperidine-4,2′-pyrazino[2,3-c]quinolin]-3′-one] | ≤ 100 | †† | – |
| C=CC(=O)N1CCC2(CC1)C(=O)Nc1c(OC[C@@H]3CCCN3C)nc3c(F)c(-c4cc(O)cc5ccccc45)c(Cl)cc3c12 [Example 13, 1-Acryloyl-8′-chloro-6′-fluoro-7′-(3-hydroxynaphthalen-1-yl)-4′-(((S)-1-methylpyrrolidin-2-yl)methoxy)spiro[piperidine-4,1′-pyrrolo[2,3-c]quinolin]-2′(3′H)-one] | ≤ 100 | †† | – |
| C=CC(=O)N1CCC2(CC1)CC(=O)c1cnc3c(F)c(-c4cc(O)cc5ccccc45)c(Cl)cc3c1O2 [Example 17, 1-Acryloyl-9′-chloro-7′-fluoro-8′-(3-hydroxynaphthalen-1-yl)spiro[piperidine-4,2′-pyrano[3,2-c]quinolin]-4′(3′H)-one] | 1000 to 5000 | – | – |
